How the values were obtained:
Format in all cases: biochemical
[1] = target: EGFR (Homo sapiens, UniProt P00533); test: Inhibition of a panel of kinases, in vitro HotSpot kinase assay: EGFR; conditions: D-compounds panel data; 1 μM ATP
Experimental: (§1) The degree of inhibition of a panel of kinases is determined using the in vitro HotSpot kinase assay (purified enzymes, ^33P-ATP, an appropriate substrate and 1 μM ATP).

[2] = target: SRC (Homo sapiens, UniProt P12931); test: Inhibition of a panel of kinases, in vitro HotSpot kinase assay: SRC; conditions: D-compounds panel data; 1 μM ATP
Sequence of SRC (P12931 whole entry): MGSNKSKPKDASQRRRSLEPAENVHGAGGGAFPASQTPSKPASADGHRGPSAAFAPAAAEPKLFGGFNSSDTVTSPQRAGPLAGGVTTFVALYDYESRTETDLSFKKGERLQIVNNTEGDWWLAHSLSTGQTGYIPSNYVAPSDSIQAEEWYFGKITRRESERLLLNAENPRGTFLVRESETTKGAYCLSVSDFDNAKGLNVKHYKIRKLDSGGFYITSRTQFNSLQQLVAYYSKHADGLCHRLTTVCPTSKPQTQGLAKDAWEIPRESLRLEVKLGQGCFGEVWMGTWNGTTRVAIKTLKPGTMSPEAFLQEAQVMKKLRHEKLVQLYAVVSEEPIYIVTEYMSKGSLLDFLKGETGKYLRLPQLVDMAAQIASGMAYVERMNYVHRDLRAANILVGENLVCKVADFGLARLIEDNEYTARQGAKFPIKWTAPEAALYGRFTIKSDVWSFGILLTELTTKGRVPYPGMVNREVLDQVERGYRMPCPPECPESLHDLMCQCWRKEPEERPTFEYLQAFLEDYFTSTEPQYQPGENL
Experimental: as §1

[3] = target: T1, BTK-WT (Homo sapiens, UniProt Q06187); test: Btk in vitro inhibitory activity (one of Method A TR-FRET, Method B electrophoretic mobility shift, Method C radiometric filter binding); conditions: D-compounds panel data; read-out: IC50 BTK-WT
T1 construct: purified from insect cells as a full-length construct containing an N-terminal 6X-His tag; His6 (N); made in house; host or cells: insect cells (baculovirus Sf21 in Method B)
T1 sequence (Q06187 whole entry): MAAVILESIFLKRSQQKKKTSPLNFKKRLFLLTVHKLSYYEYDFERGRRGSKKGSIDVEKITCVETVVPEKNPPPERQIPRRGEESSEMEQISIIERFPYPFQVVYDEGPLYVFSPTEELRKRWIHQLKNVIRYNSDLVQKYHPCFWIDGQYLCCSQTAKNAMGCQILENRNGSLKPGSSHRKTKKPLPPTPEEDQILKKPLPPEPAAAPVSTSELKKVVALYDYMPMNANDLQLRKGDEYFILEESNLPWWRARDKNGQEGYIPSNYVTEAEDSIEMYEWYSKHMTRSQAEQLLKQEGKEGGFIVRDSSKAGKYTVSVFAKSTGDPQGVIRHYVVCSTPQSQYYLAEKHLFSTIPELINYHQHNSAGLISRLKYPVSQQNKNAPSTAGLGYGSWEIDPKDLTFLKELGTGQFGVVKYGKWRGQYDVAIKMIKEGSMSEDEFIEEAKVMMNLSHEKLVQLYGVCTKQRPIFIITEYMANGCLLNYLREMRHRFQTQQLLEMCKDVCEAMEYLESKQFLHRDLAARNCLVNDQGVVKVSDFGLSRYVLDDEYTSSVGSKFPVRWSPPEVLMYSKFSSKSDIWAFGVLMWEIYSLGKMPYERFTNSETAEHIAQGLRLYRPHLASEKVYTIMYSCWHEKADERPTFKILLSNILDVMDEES

[4] = target: LCK (Homo sapiens, UniProt P06239); test: Inhibition of a panel of kinases, in vitro HotSpot kinase assay: LCK; conditions: D-compounds panel data; 1 μM ATP; read-out: IC50 LCK
Sequence of LCK (P06239 whole entry): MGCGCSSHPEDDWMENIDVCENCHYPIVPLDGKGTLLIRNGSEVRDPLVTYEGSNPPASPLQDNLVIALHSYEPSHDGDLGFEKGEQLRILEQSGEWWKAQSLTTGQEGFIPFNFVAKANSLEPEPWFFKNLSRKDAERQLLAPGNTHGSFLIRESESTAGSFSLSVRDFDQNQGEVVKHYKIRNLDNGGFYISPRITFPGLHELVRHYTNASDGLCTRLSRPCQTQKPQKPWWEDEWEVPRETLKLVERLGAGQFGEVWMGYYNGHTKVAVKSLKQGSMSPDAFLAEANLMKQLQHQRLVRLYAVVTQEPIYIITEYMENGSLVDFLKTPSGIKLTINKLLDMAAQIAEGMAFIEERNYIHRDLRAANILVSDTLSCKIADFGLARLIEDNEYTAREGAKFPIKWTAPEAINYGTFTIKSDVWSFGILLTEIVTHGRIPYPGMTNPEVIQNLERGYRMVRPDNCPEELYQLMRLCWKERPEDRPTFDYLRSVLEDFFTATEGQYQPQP

[5] = target: T2, ITK (Homo sapiens, UniProt Q08881); test: Inhibition of a panel of kinases, in vitro HotSpot kinase assay: ITK; conditions: D-compounds panel data; 1 μM ATP
T2 sequence (Q08881 1-620): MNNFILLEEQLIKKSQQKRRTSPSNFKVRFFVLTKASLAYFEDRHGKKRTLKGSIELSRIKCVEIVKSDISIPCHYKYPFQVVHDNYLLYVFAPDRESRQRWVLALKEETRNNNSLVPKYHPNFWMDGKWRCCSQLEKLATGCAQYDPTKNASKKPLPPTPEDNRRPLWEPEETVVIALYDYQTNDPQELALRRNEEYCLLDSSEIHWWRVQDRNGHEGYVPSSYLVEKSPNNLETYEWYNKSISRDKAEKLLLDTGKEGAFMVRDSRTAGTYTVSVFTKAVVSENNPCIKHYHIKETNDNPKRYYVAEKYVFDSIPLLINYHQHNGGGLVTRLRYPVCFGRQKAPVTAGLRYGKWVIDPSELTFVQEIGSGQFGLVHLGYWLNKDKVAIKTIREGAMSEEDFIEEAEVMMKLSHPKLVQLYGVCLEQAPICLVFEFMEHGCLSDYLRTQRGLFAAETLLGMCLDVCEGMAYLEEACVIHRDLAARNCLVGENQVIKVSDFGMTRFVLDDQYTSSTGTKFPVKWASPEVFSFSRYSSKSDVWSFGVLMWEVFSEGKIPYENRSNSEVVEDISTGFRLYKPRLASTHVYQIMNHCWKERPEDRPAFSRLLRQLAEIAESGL
Experimental: as §1

Sequence of EGFR (P00533 25-1210): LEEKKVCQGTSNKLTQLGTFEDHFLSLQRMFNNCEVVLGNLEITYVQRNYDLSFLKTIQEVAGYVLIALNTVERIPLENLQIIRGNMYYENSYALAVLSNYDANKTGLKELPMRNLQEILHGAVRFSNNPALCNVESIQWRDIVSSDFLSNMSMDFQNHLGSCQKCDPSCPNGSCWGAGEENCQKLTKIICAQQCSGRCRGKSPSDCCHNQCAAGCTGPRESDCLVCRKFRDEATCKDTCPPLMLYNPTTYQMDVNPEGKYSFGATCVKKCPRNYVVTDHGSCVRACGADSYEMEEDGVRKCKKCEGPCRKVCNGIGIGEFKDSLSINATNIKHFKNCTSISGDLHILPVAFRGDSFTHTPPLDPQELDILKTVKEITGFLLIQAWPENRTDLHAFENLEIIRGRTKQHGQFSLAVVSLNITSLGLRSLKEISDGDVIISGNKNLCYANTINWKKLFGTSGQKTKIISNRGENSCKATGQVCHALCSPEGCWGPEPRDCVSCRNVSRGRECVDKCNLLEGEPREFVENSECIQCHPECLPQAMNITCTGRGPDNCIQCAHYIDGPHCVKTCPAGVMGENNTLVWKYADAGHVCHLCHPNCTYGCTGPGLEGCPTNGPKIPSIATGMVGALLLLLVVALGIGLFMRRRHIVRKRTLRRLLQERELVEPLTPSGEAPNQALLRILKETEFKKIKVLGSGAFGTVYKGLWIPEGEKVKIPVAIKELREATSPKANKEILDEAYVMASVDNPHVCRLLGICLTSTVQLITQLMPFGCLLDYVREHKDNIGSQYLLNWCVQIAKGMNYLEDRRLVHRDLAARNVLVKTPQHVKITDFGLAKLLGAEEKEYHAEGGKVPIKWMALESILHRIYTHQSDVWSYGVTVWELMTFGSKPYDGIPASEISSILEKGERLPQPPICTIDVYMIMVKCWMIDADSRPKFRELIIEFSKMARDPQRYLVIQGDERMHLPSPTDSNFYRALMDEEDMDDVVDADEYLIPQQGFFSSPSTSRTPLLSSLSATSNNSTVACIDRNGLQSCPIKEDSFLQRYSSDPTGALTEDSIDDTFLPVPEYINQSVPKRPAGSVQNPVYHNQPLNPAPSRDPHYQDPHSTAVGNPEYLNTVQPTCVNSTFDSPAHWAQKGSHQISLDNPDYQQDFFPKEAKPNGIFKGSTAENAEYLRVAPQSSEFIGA

SMILES	IC50 [1] [nM]	IC50 [2] [nM]	IC50 [3] [nM]	IC50 [4] [nM]	IC50 [5] [nM]
C[C@@H]1[C@H](NC(=O)c2ccc(C3CC3)cc2)CCCN1c1cnc(C(N)=O)c(Nc2ccc(OC3C[C@H]4CC[C@@H](C3)N4C)cc2)n1 (stereo partly drawn) [Example D-104, 5-[(2R,3R)-3-(4-cyclopropylbenzamido)-2-methylpiperidin-1-yl]-3-[(4-{[(1R,5S)-8-methyl-8-azabicyclo[3.2.1]octan-3-yl]oxy}phenyl)amino]pyrazine-2-carboxamide]	100 to 1000	10 to 100	≤ 10	10 to 100	10 to 100
C[C@@H]1[C@H](NC(=O)c2ccc(C3CC3)cc2)CCCN1c1cnc(C(N)=O)c(Nc2ccc(OC3CCCN(C)C3)cc2)n1 (stereo partly drawn) [Example D-105, 5-[(2R,3R)-3-(4-cyclopropylbenzamido)-2-methylpiperidin-1-yl]-3-({4-[(1-methylpiperidin-3-yl)oxy]phenyl}amino)pyrazine-2-carboxamide]	100 to 1000	10 to 100	≤ 10	10 to 100	10 to 100
C[C@@H]1[C@H](NC(=O)c2ccc(C3CC3)cc2)CCCN1c1cnc(C(N)=O)c(Nc2ccc(OC3C[C@H]4CC[C@@H](C3)N4C)cc2)n1 (stereo partly drawn) [Example D-106, 5-[(2R,3R)-3-(4-cyclopropylbenzamido)-2-methylpiperidin-1-yl]-3-[(4-{[(1R,5S)-8-methyl-8-azabicyclo[3.2.1]octan-3-yl]oxy}phenyl)amino]pyrazine-2-carboxamide]	100 to 1000	10 to 100	≤ 10	10 to 100	10 to 100
CC(=O)NC(C)(C)c1ccc(C(=O)N[C@@H]2CCCN(c3cnc(C(N)=O)c(Nc4cnn(C)c4)n3)[C@@H]2C)cc1 [Example D-107, 5-[(2R,3R)-3-[4-(2-acetamidopropan-2-yl)benzamido]-2-methylpiperidin-1-yl]-3-[(1-methyl-1H-pyrazol-4-yl)amino]pyrazine-2-carboxamide]	1000 to 10000	10 to 100	≤ 10	100 to 1000	100 to 1000
C[C@@H]1[C@H](NC(=O)c2ccc(C(C)(C)N(C)C)cc2)CCCN1c1cnc(C(N)=O)c(Nc2cnn(C)c2)n1 [Example D-108, 5-[(2R,3R)-3-{4-[2-(dimethylamino)propan-2-yl]benzamido}-2-methylpiperidin-1-yl]-3-[(1-methyl-1H-pyrazol-4-yl)amino]pyrazine-2-carboxamide]	1000 to 10000	10 to 100	≤ 10	100 to 1000	100 to 1000
CNC(=O)N[C@@H]1CCCN(c2cnc(C(N)=O)c(Nc3cnn(C)c3)n2)[C@@H]1C [Example D-109, 3-[(1-methyl-1H-pyrazol-4-yl)amino]-5-[(2R,3R)-2-methyl-3-[(methylcarbamoyl)amino]piperidin-1-yl]pyrazine-2-carboxamide]	1000 to 10000	100 to 1000	≤ 10	100 to 1000	100 to 1000
C[C@@H]1[C@H](NC(=O)N(C)C)CCCN1c1cnc(C(N)=O)c(Nc2ccc(C(=O)N3CCN(C)CC3)cc2)n1 [Example D-110, 5-[(2R,3R)-3-[(dimethylcarbamoyl)amino]-2-methylpiperidin-1-yl]-3-{[4-(4-methylpiperazine-1-carbonyl)phenyl]amino}pyrazine-2-carboxamide]	1000 to 10000	100 to 1000	≤ 10	100 to 1000	1000 to 10000
C[C@@H]1[C@H](NC(=O)N(C)C)CCCN1c1cnc(C(N)=O)c(Nc2ccc(N3CCN(C)CC3)cc2)n1 [Example D-111, 5-[(2R,3R)-3-[(dimethylcarbamoyl)amino]-2-methylpiperidin-1-yl]-3-{[4-(4-methylpiperazin-1-yl)phenyl]amino}pyrazine-2-carboxamide]	100 to 1000	10 to 100	≤ 10	100 to 1000	100 to 1000
C[C@@H]1[C@H](NC(=O)c2ccc(C3CC3)cc2)CCCN1c1cnc(C(N)=O)c(Nc2ccc(C3(C)CCN(C4CCCC4)CC3)cc2)n1 [Example D-112, 3-{[4-(1-cyclopentyl-4-methylpiperidin-4-yl)phenyl]amino}-5-[(2R,3R)-3-(4-cyclopropylbenzamido)-2-methylpiperidin-1-yl]pyrazine-2-carboxamide]	100 to 1000	≤ 10	≤ 10	< 10	10 to 100
C[C@@H]1[C@H](NC(=O)c2ccc(C3CC3)cc2F)CCCN1c1cnc(C(N)=O)c(Nc2ccc(CN3CCN(C)CC3)cc2)n1 [Example D-113, 5-[(2R,3R)-3-(4-cyclopropyl-2-fluorobenzamido)-2-methylpiperidin-1-yl]-3-({4-[(4-methylpiperazin-1-yl)methyl]phenyl}amino)pyrazine-2-carboxamide]	100 to 1000	100 to 1000	≤ 10	10 to 100	100 to 1000
C[C@@H]1[C@H](NC(=O)c2ccc(C3CC3)cc2F)CCCN1c1cnc(C(N)=O)c(Nc2ccc3ncccc3c2)n1 [Example D-114, 5-[(2R,3R)-3-(4-cyclopropyl-2-fluorobenzamido)-2-methylpiperidin-1-yl]-3-[(quinolin-6-yl)amino]pyrazine-2-carboxamide]	> 10000	100 to 1000	10 to 100	> 10000	> 10000
Cc1cc(Nc2cc(N3CCC[C@@H](NC(=O)c4ccc(C5CC5)cc4F)[C@H]3C)cnc2C(N)=O)sn1 [Example D-116, 5-[(2R,3R)-3-(4-cyclopropyl-2-fluorobenzamido)-2-methylpiperidin-1-yl]-3-[(3-methyl-1,2-thiazol-5-yl)amino]pyridine-2-carboxamide]	1000 to 10000	100 to 1000	≤ 10	10 to 100	1000 to 10000
C[C@@H]1[C@H](NC(=O)c2ccc(C3CC3)cc2F)CCCN1c1cnc(C(N)=O)c(Nc2cnn(C)c2)c1 [Example D-117, 5-[(2R,3R)-3-(4-cyclopropyl-2-fluorobenzamido)-2-methylpiperidin-1-yl]-3-[(1-methyl-1H-pyrazol-4-yl)amino]pyridine-2-carboxamide]	1000 to 10000	100 to 1000	10 to 100	100 to 1000	1000 to 10000
C[C@@H]1[C@H](NC(=O)N(C)C)CCCN1c1cnc(C(N)=O)c(Nc2cc(CN3CCOCC3)ns2)n1 [Example D-118, 5-[(2R,3R)-3-[(dimethylcarbamoyl)amino]-2-methylpiperidin-1-yl]-3-{[3-(morpholin-4-ylmethyl)-1,2-thiazol-5-yl]amino}pyrazine-2-carboxamide]	1000 to 10000	100 to 1000	≤ 10	100 to 1000	100 to 1000
Cc1nsc(Nc2nc(N3CCC[C@@H](NC(=O)N(C)C)[C@H]3C)cnc2C(N)=O)c1C [Example D-119, 3-[(dimethyl-1,2-thiazol-5-yl)amino]-5-[(2R,3R)-3-[(dimethylcarbamoyl)amino]-2-methylpiperidin-1-yl]pyrazine-2-carboxamide]	100 to 1000	1000 to 10000	100 to 1000	1000 to 10000	> 10000
C[C@@H]1[C@H](NC(=O)N(C)C)CCCN1c1cnc(C(N)=O)c(Nc2ccc(CN3CCN(C)CC3)cc2)c1 [Example D-120, 5-[(2R,3R)-3-[(dimethylcarbamoyl)amino]-2-methylpiperidin-1-yl]-3-({4-[(4-methylpiperazin-1-yl)methyl]phenyl}amino)pyridine-2-carboxamide]	> 10000	1000 to 10000	100 to 1000	1000 to 10000	1000 to 10000
C[C@@H]1[C@H](NC(=O)N(C)C)CCCN1c1cnc(C(N)=O)c(Nc2ccc3cccnc3c2)n1 [Example D-121, 5-[(2R,3R)-3-[(dimethylcarbamoyl)amino]-2-methylpiperidin-1-yl]-3-[(quinolin-7-yl)amino]pyrazine-2-carboxamide]	1000 to 10000	100 to 1000	10 to 100	100 to 1000	1000 to 10000
C[C@@H]1[C@H](NC(=O)c2ccc(C3CC3)cc2F)CCCN1c1cnc(C(N)=O)c(Nc2cc(CN(C)C)ns2)n1 [Example D-122, 5-[(2R,3R)-3-(4-cyclopropyl-2-fluorobenzamido)-2-methylpiperidin-1-yl]-3-({3-[(dimethylamino)methyl]-1,2-thiazol-5-yl}amino)pyrazine-2-carboxamide]	1000 to 10000	10 to 100	≤ 10	10 to 100	100 to 1000

— US20210070748A1, “INHIBITORS OF BRUTONS TYROSINE KINASE” (Pharmacyclics LLC, priority 2015, published 2021)
